Patent publication US10919852B2, “Immunomodulator compounds” (CHEMOCENTRYX, INC., priority 2017, dated 2021)

Target: human PD-L1 / Human PD-1 (Homo sapiens (Human), UniProt Q9NZQ7)
Experiment: Enzyme-Linked Immunosorbent Assay (ELISA), PD-1/PD-L1 binding
Conditions: plate-coated human PD-L1, biotinylated human PD-1
Outline: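 Compound dilutions (1:5 series) competed with 0.3 μg/mL biotin-labelled human PD-1 for PD-L1 immobilised at […], for 1 h at 37 °C. Read-out was A450 after streptavidin-HRP and a 20 min TMB reaction, stopped with 2 N H2SO4.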

Chain of human PD-L1 / Human PD-1 (Q9NZQ7 19-239): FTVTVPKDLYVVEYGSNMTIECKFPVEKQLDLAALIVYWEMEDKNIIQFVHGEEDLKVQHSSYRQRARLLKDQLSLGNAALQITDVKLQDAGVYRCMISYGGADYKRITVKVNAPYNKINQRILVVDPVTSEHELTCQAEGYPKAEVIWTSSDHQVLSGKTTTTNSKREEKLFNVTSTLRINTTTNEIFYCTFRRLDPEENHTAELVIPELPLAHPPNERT

Row | IC50 | Compound
1 | 5 to 500 nM | CC1(F)CCN(CCCOc2cccc(-c3cccc4c3CC[C@@H]4Oc3cc(OCc4cncc(C#N)c4)c(CN4CC5(C4)NC(=O)NC5=O)cc3Cl)c2Cl)CC1
2 | < 5 nM | N#Cc1cncc(COc2cc(O[C@H]3CCc4c(-c5cccc(OCCCN6CCC(F)CC6)c5Cl)cccc43)c(Cl)cc2CN2CC[C@@H](O)C2)c1
3 | 5 to 500 nM | Cc1c(OCCCN2CCCC2C(C)(C)C)cccc1-c1cccc2c1CC[C@@H]2Oc1cc(OCc2cc(C#N)cc(C#N)c2)c(CN[C@H]2CCC(=O)NC2)cc1Cl (stereo partly drawn)
4 | < 5 nM | N#Cc1cncc(COc2cc(O[C@H]3CCc4c(-c5cccc(OCCCN6CC[C@H](F)C6)c5Cl)cccc43)c(Cl)cc2CN[C@@H]2CCCC[C@@H]2O)c1
5 | 5 to 500 nM | CCOc1cc(O[C@H]2CCc3c(-c4cccc(OCCCN5CCOCC5)c4C)cccc32)c(Cl)cc1CN1CC(C)(C(=O)O)C1
6 | < 5 nM | Cc1c(OCCCN2CCC(O)CC2)cccc1-c1cccc2c1C[C@H](F)[C@@H]2Oc1cc(OCc2cncc(C#N)c2)c(CN[C@@H]2CCCC[C@@H]2O)cc1Cl
7 | 500 to 20000 nM | CCOc1cc(O[C@@H]2CCc3c(-c4cccc(OCCCN5CCC5(C)C)c4C)cccc32)c(Cl)cc1CN(C)CCC(=O)O
8 | < 5 nM | Cc1c(OCCCN2CCC(F)CC2)cccc1-c1cccc2c1CC[C@@H]2Oc1cc(OCc2cc(C#N)cc(C#N)c2)c(CNC2CCNC(=O)C2)cc1Cl (stereo partly drawn)
9 | < 5 nM | N#Cc1cncc(COc2cc(O[C@H]3CCc4c(-c5cccc(OCCCN6CC7(C6)CC(F)(F)C7)c5Cl)cccc43)c(Cl)cc2CN[C@H]2CCC[C@H]2O)c1
10 | < 5 nM | N#Cc1cncc(COc2cc(O[C@H]3CCc4c(-c5cccc(OCCCN6CC7(CC(F)C7)C6)c5Cl)cccc43)c(Cl)cc2CN[C@H]2CCC[C@@H]2O)c1
11 | < 5 nM | Cc1c(OCCCN2CC[C@H](F)C2)cccc1-c1cccc2c1CC[C@@H]2Oc1cc(OCc2cncc(C#N)c2)c(CN[C@@H]2CCCC[C@@H]2O)cc1Cl
12 | < 5 nM | N#Cc1cncc(COc2cc(O[C@H]3CCc4c(-c5cccc(OCCCN6CCC(F)CC6)c5Cl)cccc43)c(Cl)cc2CN[C@@H]2CCOC[C@@H]2O)c1
13 | < 5 nM | Cc1c(OCCCN2CCCC[C@@H]2C)cccc1-c1cccc2c1CC[C@@H]2Oc1cc(OCc2cc(C#N)cc(C#N)c2)c(CNC[C@@H]2CCC(=O)N2)cc1Cl
14 | < 5 nM | CC(C)OC(=O)[C@](C)(CO)NCc1cc(Cl)c(O[C@H]2CCc3c(-c4cccc(OCCCN5CC(O)C5)c4Cl)cccc32)cc1OCc1cncc(C#N)c1
15 | < 5 nM | Cc1c(OCCCN2CCC(O)CC2)cccc1-c1cccc2c1CC[C@@H]2Oc1cc(OCc2cncc(C#N)c2)c(CN[C@@H](CNC(=N)N)C(=O)O)cc1Cl
16 | < 5 nM | CC1(O)CN(Cc2cc(Cl)c(O[C@H]3CCc4c(-c5cccc(OCCCN6CCC(F)CC6)c5Cl)cccc43)cc2OCc2cncc(C#N)c2)C1
17 | < 5 nM | CN(Cc1cc(Cl)c(O[C@H]2CCc3c(-c4cccc(OCCCN5CC(O)C5)c4Cl)cccc32)cc1OCc1cncc(C#N)c1)[C@@](C)(CO)C(=O)O
18 | 5 to 500 nM | CCOc1cc(O[C@H]2CCc3c(-c4cccc(OCCCN5CCC5(C)C)c4C)cccc32)c(Cl)cc1CN(C)CCC(=O)O
19 | 5 to 500 nM | CCOc1cc(O[C@H]2CCc3c(-c4cccc(OCCCN5CCC5(C)C)c4C)cccc32)c(Cl)cc1CN1CCC1(C)C
20 | < 5 nM | N#Cc1cncc(COc2cc(O[C@H]3CCc4c(-c5cccc(OCCCN6CC7(CC(O)C7)C6)c5Cl)cccc43)c(Cl)cc2CN[C@H]2CCC[C@H]2O)c1

Row | IC50 | Compound
21 | < 5 nM | N#Cc1cncc(COc2cc(O[C@H]3CCc4c(-c5cccc(OCCCN6CCCCC6)c5Cl)cccc43)c(Cl)cc2CN[C@@H]2CCCC[C@@H]2O)c1
22 | < 5 nM | N#Cc1cncc(COc2cc(O[C@H]3CCc4c(-c5cccc(OCCCN6CCC(F)CC6)c5Cl)cccc43)c(Cl)cc2CN2CC3(C2)NC(=O)NC3=O)c1
23 | < 5 nM | CCOc1cc(O[C@H]2CCc3c(-c4cccc(OCCCN5C(C)CC5C)c4C)cccc32)c(Cl)cc1CNC[C@@H]1CCC(=O)N1 (stereo partly drawn)
24 | < 5 nM | Cc1c(OCCCN2CCC(O)CC2)cccc1-c1cccc2c1CC[C@H]2Oc1cc(OCc2cncc(C#N)c2)c(CN[C@H](C(=O)O)[C@@H](C)O)cc1Cl
25 | 5 to 500 nM | CCOC(=O)CCN(C)Cc1cc(Cl)c(O[C@H]2CCc3c(-c4cccc(OCCCN5CCC5(C)C)c4C)cccc32)cc1OCC
26 | < 5 nM | C[C@@](CO)(NCc1cc(Cl)c(O[C@@H]2c3cccc(-c4cccc(OCCCN5CC(F)C5)c4Cl)c3C[C@@H]2F)cc1OCc1cncc(C#N)c1)C(=O)O
27 | 5 to 500 nM | Cc1c(OCCCN2CCCCC2(C)C)cccc1-c1cccc2c1CC[C@@H]2Oc1cc(OCc2cc(C#N)cc(C#N)c2)c(CN[C@H]2CCC(=O)NC2)cc1Cl
28 | < 5 nM | Cc1c(OCCCNC[C@@H](O)CO)cccc1-c1cccc2c1CC[C@@H]2Oc1cc(OCc2cncc(C#N)c2)c(CN[C@H](C(=O)O)[C@@H](C)O)cc1Cl
29 | 5 to 500 nM | CCOc1cc(O[C@H]2CCc3c(-c4cccc(OCCCN5CCC5(C)C)c4C)cccc32)c(Cl)cc1CN1CC(C(=O)O)C1
30 | < 5 nM | N#Cc1cncc(COc2cc(O[C@H]3CCc4c(-c5cccc(OCCCN6CCC6)c5Cl)cccc43)c(Cl)cc2CN[C@@H]2CCCC[C@@H]2O)c1
31 | < 5 nM | Cc1c(OCCCN2CCC(F)CC2)cccc1-c1cccc2c1CC[C@@H]2Oc1cc(OCc2cc(C#N)cc(C#N)c2)c(CN[C@@H]2CCC(=O)NC2)cc1Cl
32 | < 5 nM | C[C@@H](O)[C@H](NCc1cc(Cl)c(O[C@H]2CCc3c(-c4cccc(OCCCN5CC(O)C5)c4Cl)cccc32)cc1OCc1cncc(C#N)c1)C(=O)NS(C)(=O)=O
33 | < 5 nM | N#Cc1cncc(COc2cc(O[C@H]3CCc4c(-c5cccc(OCCCN6CC7(CC(F)C7)C6)c5Cl)cccc43)c(Cl)cc2CNC[C@H]2CCC(=O)N2)c1
34 | < 5 nM | Cc1c(OCCCN2CCC(O)CC2)cccc1-c1cccc2c1CC[C@@H]2Oc1cc(OCc2cncc(C#N)c2)c(CN2CC[C@@H](O)C2)cc1Cl
35 | < 5 nM | Cc1c(OCCCN2CC3(CCC3)C2)cccc1-c1cccc2c1CC[C@@H]2Oc1cc(OCc2cc(C#N)cc(C#N)c2)c(CNC[C@@H]2CCC(=O)N2)cc1Cl
36 | 500 to 20000 nM | CCOc1cc(O[C@H]2CCc3c(-c4cccc(OCCCN5CCC5(C)C)c4C)cccc32)c(Cl)cc1CN(C)CC(C)C(=O)OC (stereo partly drawn)
37 | 5 to 500 nM | Cc1c(OCCCN2CCC(C)(F)CC2)cccc1-c1cccc2c1CC[C@@H]2Oc1cc(OCc2cc(C#N)cc(C#N)c2)c(CNC[C@H]2CCC(=O)N2)cc1Cl
38 | 5 to 500 nM | CCOc1cc(O[C@H]2CCc3c(-c4cccc(OCCCN5CCCCC5(C)C)c4C)cccc32)c(Cl)cc1CNC[C@@H]1CCC(=O)N1
39 | < 5 nM | Cc1c(OCCCN2CCC(F)CC2)cccc1-c1cccc2c1CC[C@@H]2Oc1cc(OCc2cncc(C#N)c2)c(CN[C@H](C(=O)O)[C@@H](C)O)cc1Cl
40 | < 5 nM | N#Cc1cncc(COc2cc(O[C@H]3CCc4c(-c5cccc(OCCCN6CC7(C6)CC(F)(F)C7)c5Cl)cccc43)c(Cl)cc2CN[C@H]2CCC[C@@H]2O)c1

Row | IC50 | Compound
41 | < 5 nM | CCOC(=O)[C@](C)(CO)NCc1cc(Cl)c(O[C@H]2CCc3c(-c4cccc(OCCCN5CC(O)C5)c4Cl)cccc32)cc1OCc1cncc(C#N)c1
42 | < 5 nM | CCOc1cc(O[C@H]2CCc3c(-c4cccc(OCCCN(C)C(C)(C)C)c4C)cccc32)c(Cl)cc1CNC[C@@H]1CCC(=O)N1
43 | 5 to 500 nM | Cc1c(OCCCN2CCC(C)(F)C2)cccc1-c1cccc2c1CC[C@@H]2Oc1cc(OCc2cc(C#N)cc(C#N)c2)c(CN[C@H]2CCC(=O)NC2)cc1Cl (stereo partly drawn)
44 | 5 to 500 nM | COc1cc(O[C@H]2CCc3c(-c4cccc(OCCCN5CCC(C)(F)CC5)c4C)cccc32)c(Cl)cc1CN[C@H]1CCC(=O)NC1
45 | < 5 nM | Cc1c(OCCCN2CCC(F)CC2)cccc1-c1cccc2c1CC[C@@H]2Oc1cc(OCc2cc(C#N)cc(C#N)c2)c(CN[C@H]2CCC[C@H]2O)cc1Cl
46 | 5 to 500 nM | CCOc1cc(O[C@H]2CCc3c(-c4cccc(OCCCN5CCC5(C)C)c4C)cccc32)c(Cl)cc1CN(C)CC(C)(C)C(=O)O
47 | 5 to 500 nM | CCOc1cc(O[C@H]2CCc3c(-c4cccc(OCCCN5CCC5(C)C)c4C)cccc32)c(Cl)cc1CN1CC[C@@H](C(=O)O)C1
48 | < 5 nM | N#Cc1cncc(COc2cc(O[C@H]3CCc4c(-c5cccc(OCCCN6CCC(F)CC6)c5Cl)cccc43)c(Cl)cc2CN[C@H]2CCOC[C@@H]2O)c1
49 | < 5 nM | Cc1c(OCCCN2CCCCC2)cccc1-c1cccc2c1CC[C@@H]2Oc1cc(OCc2cc(C#N)cc(C#N)c2)c(CN[C@@H]2CCCC[C@@H]2O)cc1Cl
50 | 5 to 500 nM | Cc1c(OCCCN2CCC(F)CC2)cccc1-c1cccc2c1CC[C@@H]2Oc1cc(OCc2cncc(C#N)c2)c(CN[C@H](C(N)=O)[C@@H](C)O)cc1Cl
51 | 5 to 500 nM | Cc1c(OCCCN2CCC(F)CC2)cccc1-c1cccc2c1CC[C@@H]2Oc1cc(OCc2cncc(C#N)c2)c(CN2CC(S(N)(=O)=O)C2)cc1Cl
52 | 5 to 500 nM | N#Cc1cncc(COc2cc(O[C@H]3CCc4c(-c5cccc(OCCC(N)=O)c5Cl)cccc43)c(Cl)cc2CN[C@@H]2CCCC[C@@H]2O)c1
53 | < 5 nM | Cc1c(OCCCN2CCC[C@H](O)C2)cccc1-c1cccc2c1CC[C@@H]2Oc1cc(OCc2cncc(C#N)c2)c(CN[C@H](C(=O)O)[C@@H](C)O)cc1Cl
54 | < 5 nM | CCOc1cc(O[C@H]2CCc3c(-c4cccc(OCCCN5CCC[C@@H]5C(C)C)c4C)cccc32)c(Cl)cc1CNC[C@@H]1CCC(=O)N1
55 | < 5 nM | Cc1c(OCCCN2CCC(F)CC2)cccc1-c1cccc2c1CC[C@@H]2Oc1cc(OCc2cc(C#N)cc(C#N)c2)c(CN[C@@H]2CCC[C@@H]2O)cc1Cl
56 | < 5 nM | Cc1c(OCCCN2CCC(O)CC2)cccc1-c1cccc2c1C[C@H](F)[C@@H]2Oc1cc(OCc2cncc(C#N)c2)c(CN[C@H](C(=O)O)[C@@H](C)O)cc1Cl
57 | 5 to 500 nM | CCOc1cc(O[C@H]2CCc3c(-c4cccc(OCCCN5CC(O)C5)c4Cl)cccc32)c(Cl)cc1CNCC1CCC(=O)N1 (stereo partly drawn)
58 | 5 to 500 nM | CCOc1cc(O[C@H]2CCc3c(-c4cccc(OCCCN5CCC5(C)C)c4C)cccc32)c(Cl)cc1CN1CC(C#N)C1
59 | < 5 nM | C[C@@](CO)(NCc1cc(Cl)c(O[C@H]2CCc3c(-c4cccc(OCCCN5CC(O)C5)c4Cl)cccc32)cc1-c1cncc(C#N)c1)C(=O)O
60 | 5 to 500 nM | Cc1c(OCCCN2CC[C@@H](F)C[C@@H]2C)cccc1-c1cccc2c1CC[C@@H]2Oc1cc(OCc2cc(C#N)cc(C#N)c2)c(CN[C@H]2CCC(=O)NC2)cc1Cl
